Results taken from ChEMBL document CHEMBL3352092, “Ferrier sulfamidoglycosylation of glycals catalyzed by nitrosonium tetrafluoroborate: towards new carbonic anhydrase glycoinhibitors” (Bioorg Med Chem, 2014).

How the values were obtained:
Carbonic anhydrase 1 = Carbonic anhydrase 1 (Homo sapiens, UniProt P00915); assay: Inhibition of human full length CA1 by stopped flow CO2 hydration assay
Carbonic anhydrase 9 = Carbonic anhydrase 9 (Homo sapiens, UniProt Q16790); assay: Inhibition of human recombinant CA9 catalytic domain by stopped flow CO2 hydration assay
Carbonic anhydrase 2 = Carbonic anhydrase 2 (Homo sapiens, UniProt P00918); assay: Inhibition of human full length CA2 by stopped flow CO2 hydration assay

Chain of Carbonic anhydrase 1 (P00915 whole entry, the tested form may be a part): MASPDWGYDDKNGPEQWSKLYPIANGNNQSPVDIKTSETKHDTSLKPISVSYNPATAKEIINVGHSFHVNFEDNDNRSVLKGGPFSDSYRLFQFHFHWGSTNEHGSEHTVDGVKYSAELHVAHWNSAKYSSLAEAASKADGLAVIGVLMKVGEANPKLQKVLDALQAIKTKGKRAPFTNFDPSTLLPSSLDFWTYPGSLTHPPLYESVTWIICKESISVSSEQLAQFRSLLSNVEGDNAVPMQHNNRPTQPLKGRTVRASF

Q: With `CC(=O)OC[C@H]1OC(NS(=O)(=O)NO)C=C[C@@H]1OC(C)=O` (stereo partly drawn) as the compound, how does the Ki (Carbonic anhydrase 1) read?
A: 813 nM

Q: And the Ki (Carbonic anhydrase 9)?
A: 90 nM

Q: How did the Ki (Carbonic anhydrase 1) turn out when `CC(=O)OC[C@H]1OC(NS(=O)(=O)NO)C=C[C@H]1OC(C)=O` (stereo partly drawn) was run?
A: 752 nM

Q: What about the Ki (Carbonic anhydrase 9) of the same compound?
A: 79 nM

Q: For `CC(=O)O[C@H]1C=CC(NS(=O)(=O)NO)OC1` (stereo partly drawn), which Ki (Carbonic anhydrase 2) is on record?
A: > 10000 nM

Q: And the Ki (Carbonic anhydrase 1)?
A: > 10000 nM

Q: What about the Ki (Carbonic anhydrase 9) of the same compound?
A: 54 nM

Q: With `CC(=O)O[C@@H]1C=CC(NS(=O)(=O)NO)OC1` (stereo partly drawn) as the compound, how does the Ki (Carbonic anhydrase 2) read?
A: > 10000 nM

Q: And the Ki (Carbonic anhydrase 1)?
A: > 10000 nM

Q: And the Ki (Carbonic anhydrase 9)?
A: 44 nM

Q: What does the source list for `CC(=O)O[C@@H]1C=CC(NS(=O)(=O)NO)O[C@H]1C` (stereo partly drawn)?
A: Ki (Carbonic anhydrase 1): > 10000 nM; Ki (Carbonic anhydrase 9): 47 nM

Q: Which results are given for `O=S(=O)(NO)NC1C=C[C@H](O)[C@@H](CO)O1` (stereo partly drawn)?
A: Ki (Carbonic anhydrase 1): > 10000 nM; Ki (Carbonic anhydrase 9): 9 nM

Q: How did the Ki (Carbonic anhydrase 1) turn out when `O=S(=O)(NO)NC1C=C[C@@H](O)[C@@H](CO)O1` (stereo partly drawn) was run?
A: 917 nM

Q: What about the Ki (Carbonic anhydrase 9) of the same compound?
A: 44 nM

Q: `O=S(=O)(NO)NC1C=C[C@H](O)CO1` (stereo partly drawn) was tested. Which Ki (Carbonic anhydrase 1) did it give?
A: 927 nM

Q: And the Ki (Carbonic anhydrase 9)?
A: 8 nM

Q: `O=S(=O)(NO)NC1C=C[C@@H](O)CO1` (stereo partly drawn) was tested. Which Ki (Carbonic anhydrase 1) did it give?
A: > 10000 nM

Q: What about the Ki (Carbonic anhydrase 9) of the same compound?
A: 9 nM

Q: Which results are given for `C[C@@H]1OC(NS(=O)(=O)NO)C=C[C@H]1O` (stereo partly drawn)?
A: Ki (Carbonic anhydrase 2): > 10000 nM; Ki (Carbonic anhydrase 1): > 10000 nM; Ki (Carbonic anhydrase 9): 8 nM
